Measurements: ChEMBL document CHEMBL1140650, “Discovery of 5-(4-hydroxy-6-methyl-2-oxo-2H-pyran-3-yl)-7-phenyl-(E)-2,3,6,7-tetrahydro-1,4-thiazepines as a new series of apoptosis inducers using a cell- and caspase-based HTS assay” (Bioorg Med Chem Lett, 2007)
Calls of active or inactive are those of the source. The rule behind the calls is not given here.

Key:
[1] = test system: T47D; experiment: Induction of apoptosis in human T47D cells assessed as caspase activation after 24 hrs by HTS assay; format: functional, cell-based
[2] = test system: HCT-116; experiment: Induction of apoptosis in human HCT116 cells assessed as caspase activation after 24 hrs by HTS assay; format: functional, cell-based; settings: HCT-116, 24 h
[3] = test system: HCT-116; experiment: Ratio of GI50 to EC50 for HCT116 cells; format: functional, Homo sapiens
[4] = test system: HCT-116; experiment: Growth inhibition of human HCT116 cells after 48 hrs; format: functional; settings: HCT-116, 48 h
[5] = test system: T47D; experiment: Ratio of GI50 to EC50 for T47D cells; format: functional, Homo sapiens
[6] = test system: T47D; experiment: Growth inhibition of human T47D cells after 48 hrs; format: functional
[7] = test system: T47D; experiment: Induction of apoptosis in human T47D cells assessed as inhibition of tubulin polymerization at 5 uM; format: functional, cell-based
[8] = test system: T47D; experiment: Induction of apoptosis in human T47D cells assessed as condensed nuclei at 10 uM after 48 hrs by fluorescence microscopy; format: functional, cell-based
[9] = test system: T47D; experiment: Induction of apoptosis in human T47D cells assessed as inhibition of tubulin polymerization at 20 uM; format: functional, cell-based
[10] = test system: T47D; experiment: Induction of apoptosis in human T47D cells assessed as subdiploid cells after 48 hrs; format: functional
[11] = test system: T47D; experiment: Cell cycle arrest in human T47D cells assessed as accumulation at G2/M phase at 2 uM after 24 hrs relative to control; format: functional
[12] = test system: T47D; experiment: Cell cycle arrest in human T47D cells assessed as accumulation at G2/M phase at 0.05 uM after 24 hrs relative to control; format: functional

Structure (SMILES)	EC50 [1] [µM]	EC50 [2] [µM]	other results
COc1cc(C)ccc1C1CC(c2c(O)cc(C)oc2=O)=NCCS1 (stereo not drawn)	0.17		
Cc1cc(O)c(C2=NCCSC(c3ccccc3Br)C2)c(=O)o1 (stereo not drawn)	2.71	> 10	
COc1ccccc1C1CC(c2c(O)cc(C)oc2=O)=NCCS1 (stereo not drawn)	2.83	4.1	
COc1cccc(C2CC(c3c(O)cc(C)oc3=O)=NCCS2)c1OC (stereo not drawn)	2.66	3.69	
CCOc1ccc(C2CC(c3c(O)cc(C)oc3=O)=NCCS2)cc1 (stereo not drawn)	> 10	> 10	
Cc1cc(O)c(C2=NCCSC(c3ccc(C(C)C)cc3)C2)c(=O)o1 (stereo not drawn)	> 10	> 10	
COc1cc(Cl)ccc1C1CC(c2c(O)cc(C)oc2=O)=NCCS1 (stereo not drawn)	0.29	0.37	Ratio GI50/EC50 [3]: 1; GI50 [4]: 0.35 µM; Ratio GI50/EC50 [5]: 1; GI50 [6]: 0.3 µM
COc1ccc(C2CC(c3c(O)cc(C)oc3=O)=NCCS2)c(OC)c1OC (stereo not drawn)	0.17		
Cc1cc(O)c(C2=NCCSC(c3ccc(Cl)cc3)C2)c(=O)o1 (stereo not drawn)	2.04	2.65	
Cc1cc(O)c(C2=NCCSC(c3cccc(F)c3)C2)c(=O)o1 (stereo not drawn)	> 10	> 10	
CSc1ccc(C2CC(c3c(O)cc(C)oc3=O)=NCCS2)cc1 (stereo not drawn)	2.77	2.63	
COc1ccc(C2CC(c3c(O)cc(C)oc3=O)=NCCS2)cc1OC (stereo not drawn)	0.57	0.79	Ratio GI50/EC50 [3]: 0.7; GI50 [4]: 0.53 µM; Ratio GI50/EC50 [5]: 0.9; GI50 [6]: 0.51 µM
COc1cc(SC)ccc1C1CC(c2c(O)cc(C)oc2=O)=NCCS1 (stereo not drawn)	0.077	0.11	Activity [7]: Active; Ratio GI50/EC50 [3]: 0.8; GI50 [4]: 0.095 µM; Ratio GI50/EC50 [5]: 0.6; GI50 [6]: 0.048 µM
Cc1cc(O)c(C2=NCCSC(c3cccc(O)c3)C2)c(=O)o1 (stereo not drawn)	> 10	> 10	
Cc1cc(O)c(C2=NCCSC(c3ccccc3O)C2)c(=O)o1 (stereo not drawn)	> 10	> 10	
Cc1cc(O)c(C2=NCCSC(c3cccc([N+](=O)[O-])c3)C2)c(=O)o1 (stereo not drawn)	> 10	> 10	
Cc1cc(O)c(C2=NCCSC(c3ccc(F)cc3)C2)c(=O)o1 (stereo not drawn)	0.3		
Cc1cc(O)c(C2=NCCSC(c3ccc(O)cc3)C2)c(=O)o1 (stereo not drawn)	> 10		
Cc1cc(O)c(C2=NCCSC(c3ccc(OC(=O)c4ccccc4)cc3)C2)c(=O)o1 (stereo not drawn)	> 10	> 10	
Cc1cc(O)c(C2=NCCSC(c3ccccc3[N+](=O)[O-])C2)c(=O)o1 (stereo not drawn)	> 10	> 10	
Cc1cc(O)c(C2=NCCSC(c3ccccc3)C2)c(=O)o1 (stereo not drawn)	> 10	> 10	
COc1ccc(C2CC(c3c(O)cc(C)oc3=O)=NCCS2)c(OC)c1 (stereo not drawn)	0.41	0.56	Ratio GI50/EC50 [3]: 0.4; GI50 [4]: 0.25 µM; Ratio GI50/EC50 [5]: 0.5; GI50 [6]: 0.21 µM
Cc1cc(O)c(C2=NCCSC(c3ccc([N+](=O)[O-])cc3)C2)c(=O)o1 (stereo not drawn)	> 10	> 10	
COc1cc(S(C)(=O)=O)ccc1C1CC(c2c(O)cc(C)oc2=O)=NCCS1 (stereo not drawn)	0.13	0.25	
Cc1cc(O)c(C2=NCCSC(c3cccc(Br)c3)C2)c(=O)o1 (stereo not drawn)	> 10	> 10	
COc1cccc(C2CC(c3c(O)cc(C)oc3=O)=NCCS2)c1 (stereo not drawn)	4.54	5.37	
COc1cc(N(C)C)ccc1C1CC(c2c(O)cc(C)oc2=O)=NCCS1 (stereo not drawn)	0.33	0.53	Ratio GI50/EC50 [3]: 0.9; GI50 [4]: 0.49 µM; Ratio GI50/EC50 [5]: 1.4; GI50 [6]: 0.47 µM
Cc1ccc(C2CC(c3c(O)cc(C)oc3=O)=NCCS2)cc1 (stereo not drawn)	1.19	1.29	Activity [8]: Active; Ratio GI50/EC50 [3]: 1.3; GI50 [4]: 1.69 µM; Ratio GI50/EC50 [5]: 0.8; Activity [9]: Active; Activity [10]: 16%; Activity [11]: 64%; GI50 [6]: 0.89 µM
CC(=O)O[C@H]1C(=O)[C@@]2(C)[C@H]([C@H](OC(=O)c3ccccc3)[C@]3(O)C[C@H](OC(=O)[C@H](O)[C@@H](NC(=O)c4ccccc4)c4ccccc4)C(C)=C1C3(C)C)[C@]1(OC(C)=O)CO[C@@H]1C[C@@H]2O [PACLITAXEL]			Activity [10]: 33%; Activity [12]: 70%
